Laboratory results reported in patent US10202388B2, “Fused-ring compounds, pharmaceutical composition and uses thereof” (SHANGHAI DE NOVO PHARMATECH CO., LTD., priority 2015, dated 2019).

Target: HeLa cell based IDO1 (Homo sapiens (Human), UniProt P14902)
Experiment: Three-point IDO1 cellular assay (HeLa, 10, 100 and 1000 nM)
Details: HeLa cells, at 10 nM, 100 ng/mL IFN-γ, 18 hours
Experimental: To perform the 3-point HeLa cell based IDO1 assay, HeLa cells were seeded at 25,000 cells per well into 96-well microplate in 100 μL of growth medium. Cells were incubated at 37° C. and 5% CO2 overnight. The next day 100 μL per well of diluted inhibitor in growth medium at 10, 100 and 1000 nM, respectively, was added at a final concentration of 100 ng/ML human IFN-γ. Cells were incubated at 37° C. in a CO2 incubator for 18 hours. […] The plate was incubated at 50° C. for 30 min to hydrolyze N-formylkynurenine produced by IDO1 to kynurenine. The plate was then centrifuged at 2500 rpm for 10 min to remove sediments. 100 μl of supernatant per well was transferred to another 96-well plate and mixed with 100 μL of 2% (w/v) 4-(Dimethylamino) benzaldehyde in acetic acid. The plate was incubated at room temperature for 10 minutes, the yellow color derived from kynurenine was recorded by measuring absorbance at 480 nm using a microplate reader (TECAN Infinite M1000 Pro). Cell based assays were performed in triplicate at each concentration. The absorbance data were analyzed using the computer software, Graphpad Prism. In the absence of the compound and presence of 100 ng/ML IFN-γ, the absorbance (At) in each data set was defined as 100%. The absorbance of medium blank (Ab) in each data set was defined as 0%. The percent absorbance in the presence of each compound was calculated according to the following equation: % Absorbance=(A−Ab)/(At−Ab), where A=the absorbance in the presence of the compound and IFN-γ, Ab=the absorbance of medium blank, and At=the absorbance in the absence of the compounds and presence of IFN-γ. The values of % absorbance versus the compound concentrations were then determined.

Sequence of HeLa cell based IDO1 (P14902 whole entry): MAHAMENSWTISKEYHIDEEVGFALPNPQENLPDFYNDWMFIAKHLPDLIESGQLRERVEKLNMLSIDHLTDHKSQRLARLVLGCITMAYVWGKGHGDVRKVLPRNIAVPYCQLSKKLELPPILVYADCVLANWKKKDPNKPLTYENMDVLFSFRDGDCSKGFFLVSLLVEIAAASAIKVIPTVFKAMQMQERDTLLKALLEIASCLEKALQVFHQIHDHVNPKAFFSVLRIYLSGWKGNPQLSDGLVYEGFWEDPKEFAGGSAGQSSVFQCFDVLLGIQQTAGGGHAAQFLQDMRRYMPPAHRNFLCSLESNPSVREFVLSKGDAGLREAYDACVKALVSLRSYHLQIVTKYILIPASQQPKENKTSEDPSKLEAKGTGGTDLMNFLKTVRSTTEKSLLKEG

Row | inhibition at 0.01 µM [%] | inhibition values of % | Compound
1 | > 50 | – | O=S(=O)(Cc1ccccc1)NC1C2CC3CC1CC(C(O)CC1c4ccccc4-c4cncn41)(C3)C2 (centres unmarked) [Compound 75A]
2 | > 50 | – | O=S(=O)(CC1CCCCC1)NC1C2CC3CC1CC(C(O)CC1c4c(F)cccc4-c4cncn41)(C3)C2 (centres unmarked) [Compound 65]
3 | > 50 | – | OC(CC1c2c(F)cccc2-c2cncn21)C12CC3CC(C1)C(Nc1nc4ccccc4s1)C(C3)C2 (centres unmarked) [Compound 126]
4 | – | greater than 50% | O=S(=O)(NC1C2CC3CC1CC(C(O)CC1c4c(F)cccc4-c4cncn41)(C3)C2)C1CCCC1 (centres unmarked) [Compound 85A]
5 | > 50 | – | O=S(=O)(CC1CCCC1)NC1C2CC3CC1CC(C(O)CC1c4c(F)cccc4-c4cncn41)(C3)C2 (centres unmarked) [Compound 82A]
6 | > 50 | – | Cc1ccc(CS(=O)(=O)NC2C3CC4CC2CC(C(O)CC2c5c(F)cccc5-c5cncn52)(C4)C3)cc1 (centres unmarked) [Compound 70A]

Same assay, conditions: HeLa cells, at 100 nM, 100 ng/mL IFN-γ, 18 hours

Row | inhibition at 0.1 µM [%] | inhibition values of % | Compound
7 | > 50 | – | O=S(=O)(NC12CC3CC(C1)C(C(O)CC1c4ccccc4-c4cncn41)C(C3)C2)C1CC1 (centres unmarked) [Compound 169A]
8 | > 50 | – | CS(=O)(=O)NC1C2CC3CC1CC(C(O)CC1c4c(F)cccc4-c4cncn41)(C3)C2 (centres unmarked) [Compound 46A]
9 | > 50 | – | O=S(=O)(NC12CC3CC(C1)C(C(O)CC1c4ccccc4-c4cncn41)C(C3)C2)c1ccc(C(F)(F)F)cc1 (centres unmarked) [Compound 166B]
10 | > 50 | – | O=S(=O)(CCc1ccccc1)NC1C2CC3CC1CC(C(O)CC1c4c(F)cccc4-c4cncn41)(C3)C2 (centres unmarked) [Compound 64]
11 | > 50 | – | Cc1ccc(NC(=O)NC23CC4CC(C2)C(C(O)CC2c5ccccc5-c5cncn52)C(C4)C3)cc1 (centres unmarked) [Compound 164A]
12 | > 50 | – | O=C(NC1CCCCC1)NC1C2CC3CC1CC(C(O)CC1c4c(F)cccc4-c4cncn41)(C3)C2 (centres unmarked) [Compound 96A]
13 | > 50 | – | O=C(Nc1ccc2ccccc2c1)NC1C2CC3CC1CC(C(O)CC1c4c(F)cccc4-c4cncn41)(C3)C2 (centres unmarked) [Compound 110A]
14 | > 50 | – | O=C(Nc1ccc(Br)cc1)NC1C2CC3CC1CC(C(O)CC1c4c(F)cccc4-c4cncn41)(C3)C2 (centres unmarked) [Compound 95A]
15 | > 50 | – | O=C(Nc1ccc(F)cc1)NC1C2CC3CC1CC(C(O)CC1c4c(F)cccc4-c4cncn41)(C3)C2 (centres unmarked) [Compound 93B]
16 | > 50 | – | Cc1ccc(NS(=O)(=O)NC2C3CC4CC2CC(C(O)CC2c5ccccc5-c5cncn52)(C4)C3)cc1 (centres unmarked) [Compound 153]
17 | – | greater than 50% | O=S(=O)(CC1CCOCC1)NC1C2CC3CC1CC(C(O)CC1c4c(F)cccc4-c4cncn41)(C3)C2 (centres unmarked) [Compound 84A]
18 | > 50 | – | O=S(=O)(CC1CC1)NC1C2CC3CC1CC(C(O)CC1c4c(F)cccc4-c4cncn41)(C3)C2 (centres unmarked) [Compound 68]
19 | > 50 | – | O=C(NCC1CCC1)NC1C2CC3CC1CC(C(O)CC1c4c(F)cccc4-c4cncn41)(C3)C2 (centres unmarked) [Compound 111A]
20 | > 50 | – | Cc1ccc(CC(=O)NC23CC4CC(C2)C(C(O)CC2c5c(F)cccc5-c5cncn52)C(C4)C3)cc1 (centres unmarked) [Compound 193A]
21 | > 50 | – | O=C(Nc1ccc(Cl)cc1)NC1C2CC3CC1CC(C(O)CC1c4c(F)cccc4-c4cncn41)(C3)C2 (centres unmarked) [Compound 94A]
22 | > 50 | – | O=C(Nc1ccc(F)cc1F)NC1C2CC3CC1CC(C(O)CC1c4c(F)cccc4-c4cncn41)(C3)C2 (centres unmarked) [Compound 105A]
23 | – | greater than 50% | CN(C1C2CC3CC1CC(C(O)CC1c4c(F)cccc4-c4cncn41)(C3)C2)S(=O)(=O)Cc1ccccc1 (centres unmarked) [Compound 89]
24 | > 50 | – | O=C(Cc1ccccc1)NC1C2CC3CC1CC(C(O)CC1c4ccccc4-c4cncn41)(C3)C2 (centres unmarked) [Compound 53B]
25 | > 50 | – | O=C(NCC1CC1)NC1C2CC3CC1CC(C(O)CC1c4c(F)cccc4-c4cncn41)(C3)C2 (centres unmarked) [Compound 107A]
26 | > 50 | – | O=C(Nc1ccc(F)cc1)NC12CC3CC(C1)C(C(O)CC1c4ccccc4-c4cncn41)C(C3)C2 (centres unmarked) [Compound 163A]
27 | – | greater than 50% | OC(COC1C2CC3CC1CC(C(O)CC1c4c(F)cccc4-c4cncn41)(C3)C2)c1ccccc1 (centres unmarked) [Compound 136]

Row | Compound | inhibition at 0.1 µM [%] | inhibition values of %
28 | O=C1N(c2ccc(F)cc2)CCN1C1C2CC3CC1CC(C(O)CC1c4c(F)cccc4-c4cncn41)(C3)C2 (centres unmarked) [Compound 122] | – | greater than 50%
29 | O=S(=O)(Nc1ccccc1)NC1C2CC3CC1CC(C(O)CC1c4ccccc4-c4cncn41)(C3)C2 (centres unmarked) [Compound 151] | – | greater than 50%

Same assay, conditions: HeLa cells, at 1000 nM, 100 ng/mL IFN-γ, 18 hours

Row | inhibition at 1 µM [%] | inhibition values of % | Compound
30 | > 50 | – | CC(=O)c1ccc(NC(=O)NC2C3CC4CC2CC(C(O)CC2c5ccccc5-c5cncn52)(C4)C3)cc1 (centres unmarked) [Compound 104]
31 | > 50 | – | O=C(Cc1ccncc1)NC1C2CC3CC1CC(C(O)CC1c4ccccc4-c4cncn41)(C3)C2 (centres unmarked) [Compound 50A]
32 | > 50 | – | O=S(=O)(Cc1ccccc1)NC1C2CC3CC1CC(C(O)CC1c4ccccc4-c4cncn41)(C3)C2 (centres unmarked) [Compound 75B]
33 | > 50 | – | O=C(NC1CC1)NC1C2CC3CC1CC(C(O)CC1c4c(F)cccc4-c4cncn41)(C3)C2 (centres unmarked) [Compound 106A]
34 | > 50 | – | O=S(=O)(NC12CC3CC(C1)C(C(O)CC1c4ccccc4-c4cncn41)C(C3)C2)C1CC1 (centres unmarked) [Compound 169B]
35 | – | greater than 50% | O=C(NC1CCOCC1)NC1C2CC3CC1CC(C(O)CC1c4c(F)cccc4-c4cncn41)(C3)C2 (centres unmarked) [Compound 54]
36 | > 50 | – | O=S(=O)(c1ccccc1)N1C2CC3CC1CC(C(O)CC1c4c(F)cccc4-c4cncn41)(C3)C2 (centres unmarked) [Compound 206]
37 | > 50 | – | Cc1ccc(NC(=O)NC23CC4CC(C2)C(C(O)CC2c5ccccc5-c5cncn52)C(C4)C3)cc1 (centres unmarked) [Compound 164B]
38 | > 50 | – | O=C(Nc1cccnc1)NC1C2CC3CC1CC(C(O)CC1c4c(F)cccc4-c4cncn41)(C3)C2 (centres unmarked) [Compound 56A]
39 | > 50 | – | OC(COC1C2CC3CC1CC(C(O)CC1c4c(F)cccc4-c4cncn41)(C3)C2)C1CCCCC1 (centres unmarked) [Compound 137]
40 | – | greater than 50% | N#CC1C2CC3CC1CC(C(O)CC1c4c(F)cccc4-c4cncn41)(C3)C2 (centres unmarked) [Compound 76]
41 | > 50 | – | O=S(=O)(CC1CCC1)NC1C2CC3CC1CC(C(O)CC1c4c(F)cccc4-c4cncn41)(C3)C2 (centres unmarked) [Compound 67A]
42 | – | greater than 50% | OCCC1(O)C2CC3CC1CC(C(O)CC1c4c(F)cccc4-c4cncn41)(C3)C2 (centres unmarked) [Compound 142]
43 | – | greater than 50% | ON=C1C2CC3CC1CC(C(O)CC1c4c(F)cccc4-c4cncn41)(C3)C2 (centres unmarked) [Compound 80]
44 | > 50 | – | NS(=O)(=O)NC1C2CC3CC1CC(C(O)CC1c4c(F)cccc4-c4cncn41)(C3)C2 (centres unmarked) [Compound 48A]
45 | > 50 | – | N#Cc1ccc(NC(=O)NC23CC4CC(C2)C(C(O)CC2c5c(F)cccc5-c5cncn52)C(C4)C3)cc1 (centres unmarked) [Compound 191A]
46 | > 50 | – | O=C(NCC1CCOC1)NC1C2CC3CC1CC(C(O)CC1c4c(F)cccc4-c4cncn41)(C3)C2 (centres unmarked) [Compound 112A]
47 | > 50 | – | O=C(CO)NC1C2CC3CC1CC(C(O)CC1c4ccccc4-c4cncn41)(C3)C2 (centres unmarked) [Compound 51A]
48 | – | greater than 50% | O=C1C2CC3CC1CC(C(O)CC1c4c(F)cccc4-c4cncn41)(C3)C2 (centres unmarked) [Compound 63]
49 | > 50 | – | OC(CC1c2c(F)cccc2-c2cncn21)C12CC3CC(C1)N(c1ncc(-c4ccccc4)o1)C(C3)C2 (centres unmarked) [Compound 210]
50 | > 50 | – | Cn1cc(NC(=O)NC2C3CC4CC2CC(C(O)CC2c5c(F)cccc5-c5cncn52)(C4)C3)cn1 (centres unmarked) [Compound 114A]
51 | > 50 | – | O=C(Nc1cccc2ccccc12)NC1C2CC3CC1CC(C(O)CC1c4c(F)cccc4-c4cncn41)(C3)C2 (centres unmarked) [Compound 109A]
52 | > 50 | – | O=C(Nc1ccc(F)cc1)NC12CC3CC(C1)C(C(O)CC1c4ccccc4-c4cncn41)C(C3)C2 (centres unmarked) [Compound 163B]
53 | > 50 | – | O=C(Cc1ccc(F)cc1)N1C2CC3CC1CC(C(O)CC1c4c(F)cccc4-c4cncn41)(C3)C2 (centres unmarked) [Compound 207]
54 | > 50 | – | CC(=O)Nc1ccc(S(=O)(=O)NC23CC4CC(C2)C(C(O)CC2c5ccccc5-c5cncn52)C(C4)C3)cc1 (centres unmarked) [Compound 201A]
55 | > 50 | – | O=S(=O)(CC1CCCCC1)NC12CC3CC(C1)C(C(O)CC1c4ccccc4-c4cncn41)C(C3)C2 (centres unmarked) [Compound 170A-A]
56 | > 50 | – | O=S(=O)(Nc1ccc(F)cc1)NC1C2CC3CC1CC(C(O)CC1c4ccccc4-c4cncn41)(C3)C2 (centres unmarked) [Compound 152]
57 | > 50 | – | OC(CC1c2c(F)cccc2-c2cncn21)C12CC3CC(C1)C(OCc1ccccc1)C(C3)C2 (centres unmarked) [Compound 133]
58 | > 50 | – | OC(CC1c2c(F)cccc2-c2cncn21)C12CC3CC(C1)C(OCCN1CCOCC1)C(C3)C2 (centres unmarked) [Compound 135B]

Row | Compound | inhibition at 1 µM [%] | inhibition values of %
59 | CNC(=O)NC1C2CC3CC1CC(C(O)CC1c4c(F)cccc4-c4cncn41)(C3)C2 (centres unmarked) [Compound 98A] | – | greater than 50%
